Measurements: ChEMBL document CHEMBL1909046, “DrugMatrix in vitro pharmacology data”

Tests used:
[1] = target: 5-hydroxytryptamine receptor 4 (Cavia porcellus, UniProt O70528); type: cell membranes, Dunkin-Hartley, Striatum, Membrane; note: in other assays of this panel Not Active means under 50% inhibition at 10 µM
D(1A) dopamine receptor = D(1A) dopamine receptor (Homo sapiens, UniProt P21728); assay: DRUGMATRIX: Dopamine D1 radioligand binding (ligand: [3H] SCH-23390); type: cell membranes, Membrane; settings: cho; Not Active = under 50% inhibition at 10 µM
[2] = target: Sodium-dependent dopamine transporter (Homo sapiens, UniProt Q01959); assay: DRUGMATRIX: Dopamine Transporter radioligand binding (ligand: [125I] RTI-55); type: cell membranes, CHO-K1, Membrane; settings: cho-k1; Not Active = under 50% inhibition at 10 µM
[3] = DRUGMATRIX: Phosphodiesterase PDE3 enzyme inhibition (substrate: [3H]cAMP + cAMP); type: tissue-based, Homo sapiens; settings: platelet; Not Active = under 50% inhibition at 10 µM
Caspase-1 = target: T1, Caspase-1 (Homo sapiens, UniProt P29466); set-up: species or system Escherichia coli;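 note: Caspase-1 enzyme inhibition assay with a peptide substrate; in other assays of this panel Not Active means under 50% inhibition at 10 µM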
T1 sequence (P29466 whole entry): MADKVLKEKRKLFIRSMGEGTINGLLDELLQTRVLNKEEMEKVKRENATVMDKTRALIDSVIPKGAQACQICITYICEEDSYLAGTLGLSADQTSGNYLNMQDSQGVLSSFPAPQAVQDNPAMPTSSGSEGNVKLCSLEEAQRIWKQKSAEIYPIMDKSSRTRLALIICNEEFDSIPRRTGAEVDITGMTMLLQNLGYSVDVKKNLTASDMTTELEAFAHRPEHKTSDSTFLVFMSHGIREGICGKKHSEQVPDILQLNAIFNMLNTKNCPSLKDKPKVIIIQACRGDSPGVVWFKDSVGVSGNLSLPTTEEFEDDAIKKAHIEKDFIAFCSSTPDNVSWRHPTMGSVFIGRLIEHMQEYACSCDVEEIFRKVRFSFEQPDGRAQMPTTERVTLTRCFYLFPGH

Neutrophil elastase = target: T2, Neutrophil elastase (Homo sapiens, UniProt P08246); type: tissue-based;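 note: inhibition of neutrophil elastase enzyme activity, measured with a p-nitroanilide-linked peptide substrate; in other assays of this panel Not Active means under 50% inhibition at 10 µM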
T2 sequence (P08246 whole entry): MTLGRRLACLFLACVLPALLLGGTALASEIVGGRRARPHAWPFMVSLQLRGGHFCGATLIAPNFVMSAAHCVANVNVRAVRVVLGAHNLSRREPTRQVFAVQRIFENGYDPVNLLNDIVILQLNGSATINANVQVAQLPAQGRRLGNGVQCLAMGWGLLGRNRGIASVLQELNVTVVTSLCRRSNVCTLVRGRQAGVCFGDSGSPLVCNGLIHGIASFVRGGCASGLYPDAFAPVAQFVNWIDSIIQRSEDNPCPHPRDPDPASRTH

Chain of Sodium-dependent dopamine transporter (Q01959 whole entry): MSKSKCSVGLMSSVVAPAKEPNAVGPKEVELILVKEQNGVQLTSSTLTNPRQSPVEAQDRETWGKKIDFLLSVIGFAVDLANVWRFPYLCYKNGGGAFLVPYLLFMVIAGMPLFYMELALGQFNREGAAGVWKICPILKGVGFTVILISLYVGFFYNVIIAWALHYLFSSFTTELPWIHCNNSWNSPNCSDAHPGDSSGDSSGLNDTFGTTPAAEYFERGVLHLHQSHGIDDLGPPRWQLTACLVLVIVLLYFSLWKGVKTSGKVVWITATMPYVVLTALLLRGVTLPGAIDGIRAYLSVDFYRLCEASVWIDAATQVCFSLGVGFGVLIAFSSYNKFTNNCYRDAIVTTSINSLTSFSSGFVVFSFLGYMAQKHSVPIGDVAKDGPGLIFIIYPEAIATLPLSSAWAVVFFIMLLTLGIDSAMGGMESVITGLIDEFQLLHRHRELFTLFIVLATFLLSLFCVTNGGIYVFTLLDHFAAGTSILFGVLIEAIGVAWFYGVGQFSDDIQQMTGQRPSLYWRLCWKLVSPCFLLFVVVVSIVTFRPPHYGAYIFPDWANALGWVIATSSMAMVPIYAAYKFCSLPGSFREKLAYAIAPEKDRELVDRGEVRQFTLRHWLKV
Chain of D(1A) dopamine receptor (P21728 whole entry): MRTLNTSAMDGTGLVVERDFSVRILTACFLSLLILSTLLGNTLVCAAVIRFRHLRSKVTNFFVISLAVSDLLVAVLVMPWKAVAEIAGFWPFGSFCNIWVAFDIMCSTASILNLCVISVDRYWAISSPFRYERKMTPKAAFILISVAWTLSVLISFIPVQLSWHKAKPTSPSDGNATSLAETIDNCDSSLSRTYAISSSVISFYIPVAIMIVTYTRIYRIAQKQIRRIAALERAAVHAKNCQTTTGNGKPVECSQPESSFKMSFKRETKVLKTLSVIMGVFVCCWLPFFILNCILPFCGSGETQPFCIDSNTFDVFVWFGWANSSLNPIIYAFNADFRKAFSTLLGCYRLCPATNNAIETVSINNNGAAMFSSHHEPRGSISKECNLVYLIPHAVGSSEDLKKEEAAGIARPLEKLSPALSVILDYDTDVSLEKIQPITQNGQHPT
Chain of 5-hydroxytryptamine receptor 4 (O70528 whole entry): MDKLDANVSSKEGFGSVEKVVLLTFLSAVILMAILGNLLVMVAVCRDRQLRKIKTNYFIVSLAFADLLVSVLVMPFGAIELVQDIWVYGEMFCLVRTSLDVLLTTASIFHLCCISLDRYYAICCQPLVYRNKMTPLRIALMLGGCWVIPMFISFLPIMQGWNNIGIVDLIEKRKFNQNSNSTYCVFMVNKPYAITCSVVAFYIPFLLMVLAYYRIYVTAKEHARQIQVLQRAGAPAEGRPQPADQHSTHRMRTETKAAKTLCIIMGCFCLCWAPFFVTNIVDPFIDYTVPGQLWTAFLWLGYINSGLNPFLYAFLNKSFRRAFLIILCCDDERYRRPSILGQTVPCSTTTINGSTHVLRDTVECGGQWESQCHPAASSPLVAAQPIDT

CC1(C)O[C@@H]2C[C@H]3[C@@H]4C[C@H](F)C5=CC(=O)C=C[C@]5(C)[C@H]4[C@@H](O)C[C@]3(C)[C@]2(C(=O)CO)O1 [FLUNISOLIDE]
Not Active: IC50 [1] | IC50 (D(1A) dopamine receptor) | IC50 [2] | IC50 [3] | Ki [3] | IC50 (Caspase-1) | IC50 (Neutrophil elastase)

CC1(C)O[C@@H]2C[C@H]3[C@@H]4C[C@H](F)C5=CC(=O)C=C[C@]5(C)[C@@]4(F)[C@@H](O)C[C@]3(C)[C@]2(C(=O)CO)O1 [FLUOCINOLONE ACETONIDE]
Not Active: IC50 [1] | IC50 (D(1A) dopamine receptor) | IC50 [2] | IC50 [3] | Ki [3] | IC50 (Caspase-1) | IC50 (Neutrophil elastase)

CC1(C)O[C@@H]2C[C@H]3[C@@H]4C[C@H](F)C5=CC(=O)CC[C@]5(C)[C@H]4[C@@H](O)C[C@]3(C)[C@]2(C(=O)CO)O1 [FLURANDRENOLIDE]
Not Active: IC50 [1] | IC50 (D(1A) dopamine receptor) | IC50 [2] | IC50 [3] | Ki [3] | IC50 (Caspase-1) | IC50 (Neutrophil elastase)

Cc1ccc(S(=O)(=O)NC(=O)NN2CC3CCCC3C2)cc1 (stereo not given) [GLICLAZIDE]
Not Active: IC50 [1] | IC50 (D(1A) dopamine receptor) | IC50 [2] | IC50 [3] | Ki [3] | IC50 (Caspase-1) | IC50 (Neutrophil elastase)

NC(=O)NO [HYDROXYUREA]
Not Active: IC50 [1] | IC50 (D(1A) dopamine receptor) | IC50 [2] | IC50 [3] | Ki [3] | IC50 (Caspase-1) | IC50 (Neutrophil elastase)

CC(C)Cc1ccc(C(C)C(=O)O)cc1 (stereo not given) [IBUPROFEN]
Not Active: IC50 [1] | IC50 (D(1A) dopamine receptor) | IC50 [2] | IC50 [3] | Ki [3] | IC50 (Caspase-1) | IC50 (Neutrophil elastase)

COc1ccc2c(c1)c(CC(=O)O)c(C)n2C(=O)c1ccc(Cl)cc1 [INDOMETHACIN]
Not Active: IC50 [1] | IC50 (D(1A) dopamine receptor) | IC50 [2] | IC50 [3] | Ki [3] | IC50 (Caspase-1) | IC50 (Neutrophil elastase)

CCc1c2c(nc3ccc(OC(=O)N4CCC(N5CCCCC5)CC4)cc13)-c1cc3c(c(=O)n1C2)COC(=O)[C@]3(O)CC [IRINOTECAN]
Not Active: IC50 [1] | IC50 (D(1A) dopamine receptor) | IC50 [2] | IC50 [3] | Ki [3] | IC50 (Caspase-1) | IC50 (Neutrophil elastase)

CC(C(=O)O)c1cccc(C(=O)c2ccccc2)c1 (stereo not given) [KETOPROFEN]
Not Active: IC50 [1] | IC50 (D(1A) dopamine receptor) | IC50 [2] | IC50 [3] | Ki [3] | IC50 (Caspase-1) | IC50 (Neutrophil elastase)

Nc1ccn([C@@H]2CS[C@H](CO)O2)c(=O)n1 [LAMIVUDINE]
Not Active: IC50 [1] | IC50 (D(1A) dopamine receptor) | IC50 [2] | IC50 [3] | Ki [3] | IC50 (Caspase-1) | IC50 (Neutrophil elastase)

O=S(=O)([O-])CCS.[Na+] [MESNA]
Not Active: IC50 [1] | IC50 (D(1A) dopamine receptor) | IC50 [2] | IC50 [3] | Ki [3] | IC50 (Caspase-1) | IC50 (Neutrophil elastase)

C#C[C@]1(O)CC[C@H]2[C@@H]3CCc4cc(OC)ccc4[C@H]3CC[C@@]21C [MESTRANOL]
Not Active: IC50 [1] | IC50 (D(1A) dopamine receptor) | IC50 [2] | IC50 [3] | Ki [3] | IC50 (Caspase-1) | IC50 (Neutrophil elastase)

CC(=O)Nc1cccc(O)c1 [METACETAMOL]
Not Active: IC50 [1] | IC50 (D(1A) dopamine receptor) | IC50 [2] | IC50 [3] | Ki [3] | IC50 (Caspase-1) | IC50 (Neutrophil elastase)

Cc1ncc([N+](=O)[O-])n1CCO [METRONIDAZOLE]
Not Active: IC50 [1] | IC50 (D(1A) dopamine receptor) | IC50 [2] | IC50 [3] | Ki [3] | IC50 (Caspase-1) | IC50 (Neutrophil elastase)

CC(C)(C(=O)c1cccnc1)c1cccnc1 [METYRAPONE]
Not Active: IC50 [1] | IC50 (D(1A) dopamine receptor) | IC50 [2] | IC50 [3] | Ki [3] | IC50 (Caspase-1) | IC50 (Neutrophil elastase)

Oc1ccc(OCc2ccccc2)cc1 [MONOBENZONE]
Not Active: IC50 [1] | IC50 (D(1A) dopamine receptor) | IC50 [2] | IC50 [3] | Ki [3] | IC50 (Caspase-1) | IC50 (Neutrophil elastase)

CC(C)(Oc1ccc(C2CCCc3ccccc32)cc1)C(=O)O (stereo not given) [NAFENOPIN]
Not Active: IC50 [1] | IC50 (D(1A) dopamine receptor) | IC50 [2] | IC50 [3] | Ki [3] | IC50 (Caspase-1) | IC50 (Neutrophil elastase)

CC(C)[C@H]1CC[C@H](C(=O)N[C@H](Cc2ccccc2)C(=O)O)CC1 [NATEGLINIDE]
Not Active: IC50 [1] | IC50 (D(1A) dopamine receptor) | IC50 [2] | IC50 [3] | Ki [3] | IC50 (Caspase-1) | IC50 (Neutrophil elastase)

CCN[C@@H]1C[C@H](N)[C@@H](O[C@H]2OC(CN)=CC[C@H]2N)[C@H](O)[C@H]1O[C@H]1OC[C@](C)(O)[C@H](NC)[C@H]1O [NETILMICIN]
Not Active: IC50 [1] | IC50 (D(1A) dopamine receptor) | IC50 [2] | IC50 [3] | Ki [3] | IC50 (Caspase-1) | IC50 (Neutrophil elastase)

COC(=O)C1=C(C)NC(C)=C(C(=O)OCC(C)C)C1c1ccccc1[N+](=O)[O-] (stereo not given) [NISOLDIPINE]
Not Active: IC50 [1] | IC50 (D(1A) dopamine receptor) | IC50 [2] | IC50 [3] | Ki [3] | IC50 (Caspase-1) | IC50 (Neutrophil elastase)
